Several values for one entry are separate records, joined by “and”; a condition that tells them apart may be missing. Equal entries are not always repeated.
Tests used:
CSF1 protein = assay: ELISA of CSF1 protein in supernatant of human tumor cells (A2780, SKOV3, A375); type: cell-based; conditions: 10^6 A375 cells, 25 nM, 24 h
Protocol: (§1) A2780 tumor cells were pretreated with 100 nM NHWD-870 and then directly co-cultured with TAMs (A2780:TAMs ratio as 4:1) at the density of 1 × 10^5 total cells in a 12-well. Shown are immunofluorescent staining of Ki67 and CD68 (a) and quantification of Ki67+ and CD68− or CD68+ cells (b). Scale bar is 50 μm. […] A2780 cells (pre-treated with or without 100 nM NHWD-870 for 48 h) were seeded into the top chamber (transwell size: 0.4 μm) and TAMs (Mac, 40,000 cells per 24-well) in medium containing 2% matrigel were seeded into the bottom chamber pre-coated with Matrigel. No NHWD-870 was added to the co-culture. The upper chamber without A2780 cells was used as a control. Shown are schematics of transwell co-culture experiment (c), representative pictures of TAM spheroid (d: black/white), and quantification of spheroid volumes (e). Scale bar is 50 μm. […] Data are presented as mean ± SEM from three independent experiments. g CSF1 protein levels in supernatant of 10^6 ID8, B16, A2780, SKOV3, and A375 cells treated with DMSO or 25 nM NHWD-870 for 24 h, as measured by ELISA. […] Scale bar is 20 μm. i Quantification of CSF1 staining in DMSO or 100 nM NHWD-870 treated A2780 cells. […] Shown are representative immunofluorescent staining of CSF1 (green) and CD68 (red) (j) and quantification of CSF1 staining (k). […]

HIF1α protein = assay: Western blot of HIF1α in A375 and A2780 cells at 20% or 1% O2; type: cell-based, human; conditions: 25 nM, 20% or 1% O2, 24 h
Protocol: Fig. 7 NHWD-870 inhibited CSF1 expression through suppressing BRD4 and HIF1α in tumor cells. a, b Representative western blot analysis of control (Ctrl) and BRD4 knockout (KO) A375 and A2780 cells exposed to 20% or 1% O2 for 24 hours. Selected from three independent experiments. c, d Representative western blot analysis of A375 and A2780 cells treated with DMSO or 25 nM NHWD-870 and exposed to 20% or 1% O2 for 24 h. Selected from three independent experiments. e Relative HIF1 luciferase reporter activity in control (Ctrl), BRD4 knockout (KO), or NHWD-870 treated A375 and A2780 cells exposed to 20% or 1% O2 for 24 h. […] NHWD-870 inhibits the proliferation and survival of TAMs partly by inhibiting BRD4 activity, HIF1α expression, and CSF1 secretion by tumor cells, and downregulating CSF1R mediated ERK and PI3K/AKT signaling in TAMs. p values were calculated using two-tailed, unpaired t tests in this figure. *p < 0.05; **p < 0.01; ***p < 0.001. […]
of treatment, 10 μl AlamarBlue reagent (0.3 mg/ml) was added to each well, and after 18h, the florescence intensity in each well was measured using a top-reading fluorescent plate reader with excitation at 530 nm and emission at 590 nm.
4. […] Supernatants were collected and determined with a Bradford Protein Assay kit (Bio-Rad, Hercules, CA). […]
every week. […] Colony numbers were calculated with imageJ version

[1] = tested on: A2780 tumor cells and TAMs; assay: Direct co-culture of pretreated A2780 cells with TAMs, Ki67/CD68 staining; type: cell-based, mouse
Protocol: as §1

Question: Which “CSF1 protein levels in supernatant (ELISA)” value (CSF1 protein) does the source give for `Cc1nnn(C)c1-c1cnc2c3c4cnn(C)c4ccc3n([C@H](c3ccccc3)C3CCOCC3)c2c1` [NHWD-870] here?
Answer: Its value is 26 and 36 and 31.

Question: And the “HIF1α protein (western blot)” value (HIF1α protein)?
Answer: Its value is “decreased HIF1α protein”.

Question: What about the “quantification of Ki67+ and CD68+ cells” value ([1]; A2780 pretreated with 100 nM, direct co-culture with TAMs) of the same compound?
Answer: Its value is 0.

Question: What about the inhibition at 0.1 µM ([1]; pre-treatment of A2780 cells with 100 nM, read-out: inhibition of the proliferation rate of TAMs) of the same compound?
Answer: Its inhibition at 0.1 µM is 83%.
